Measured values reported in publication PMC5118709, “Identification of Polo-like kinase 1 interaction inhibitors using a novel cell-based assay” (Scientific Reports, 2016).
Values joined by “and” are separate entries in the source; they are usually repeats but may differ in a detail not shown here. Equal values may be shown once. Where no end group is shown, it is not given here. [ ]: non-standard residue; d: D form. The star is where a group is joined. FITC = O=C1OC2(c3ccc(O)cc3Oc3cc(O)ccc32)c2ccc(NC(=S)*)cc21; pT = C[C@@H](OP(=O)(O)O)[C@H](N)C(=O)O

How the values were obtained:
CRAF-BRAF = molecular target: T1, CRAF-BRAF (Homo sapiens, UniProt P04049+P15056); experiment: control BRET CRAF-BRAF (transient); type: cell-based; details: for Primary screen CRAF-BRAF (transient) % Inihibition / Primary screen CRAF-BRAF (transient) % Quench RLuc: 10-25 μM; for Confirmation CRAF-BRAF (transient) % Inihibition / Confirmation CRAF-BRAF (transient) % Quench RLuc: confirmation screen
T1 construct: expressed in transfected cells; host or cells: HEK293T, transient transfection with PEI
Method: (§1) We used our cell-based assay to screen a library of 112 983 compounds available in-house at IRIC’s High-Throughput Screening (HTS) platform (see Materials & Methods). Compounds were tested on cells in 384-well plates at concentrations between 10 μM and 25 μM, depending on their concentration in the original stocks solutions. BRET readings were taken 2 hours after treatment. Results obtained show a tight, close to normal distribution centered around zero inhibition relative to DMSO-treated controls (Fig. 1D). Compounds inducing at least 30% BRET inhibition were selected. From these, auto-fluorescent compounds and those that induced more than 90% reduction in RLucII luminescence were removed, leaving 800 primary hits, that we then re-tested using the same assay. In parallel, we tested these compounds in a control BRET assay for an unrelated pair of interacting proteins (BRAF-CRAF[46]) to exclude false-positive compounds that could reduce the BRET signal by interfering with light or by modifying the activity of GFP or Luc.
(§2) For the confirmation screen, the same procedure as for the primary screen was followed, except that HEK293T cells were also seeded at 6.25 millions of cells per simple CellStack on day 1 for transient transfections. These cells were transfected on day 3 with Luc-Map (5 μg) and Plk1-GFP (25 μg) pIRESHyg3 plasmids using polyethylenimine (PEI). To identify false-positives compounds, Luc-CRAF (4 μg) and GFP-BRAF (20 μg) plasmids were also transfected with PEI following the published procedure.

HeLa cells [1] = experiment: mitotic index assay (phospho-Histone H3) in HeLa cells; type: cell-based; details: for effect on mitotic index, purchased compounds: 10 μM
HeLa cells [2] = experiment: mitotic defect phenotypes by immunofluorescence; type: cell-based; details: 10 μM, 7 h
Method: HeLa cells were treated with these compounds along with the known PBD inhibitors PPG, TQ, Poloxin and the KD inhibitor BI2536 as controls, and then stained against α-Tubulin, pericentrin (a centrosome marker) and DNA (Fig. 2D). In all cases, there was a marked increase in the frequency of disorganized spindles compared with DMSO-treated control cells. This is expected as Plk1 plays multiple roles in spindle assembly and maintenance. […] Cpd 69, an analog of compound 122, induced a similar phenotype at lower concentrations (data not shown). This phenotype was not seen after treatment with BI2536.
For the mitotic defect phenotypes, 25 200 HeLa cells were plated on poly-L-lysine coated round cover slips in 24-well plates. The day after, cells were treated for 7 hours, and then washed with PHEM buffer at 37 °C before fixation in PHEM buffer containing 4% formaldehyde for 20 minutes at 37 °C. Cells were washed three times with TBS-tween 0.1% and plate was kept overnight at 4 °C. Next steps were followed as previously described except that coverslips were incubated in a dark wet chamber with antibodies. Anti-pericentrin (diluted 1:1000; Abcam), anti-α-tubulin DM1A (diluted 1:500; Sigma-Aldrich), Alexa Fluor 488 anti-rabbit and Texas-Red anti-mouse (diluted 1:200; Invitrogen) were used. Coverslips were mounted on slide using Vectashield media containing DAPI (Vector Laboratories).
Images shown in Fig. 2D were acquired on an AxioImager microscope (Carl Zeiss) with a 100x oil objective (NA 1.4 DICIII) and an AxioCam HRM camera (Carl Zeiss) using AxioVision software (Carl Zeiss).

Plk1-Map interaction [3] = molecular target: T2, Plk1-Map interaction (Homo sapiens, UniProt P53350); experiment: LUMIER co-immunoprecipitation assay Plk1-Map; details: for Relative Luminescence Unit: mean divided by maximum mean of the compounds
Method: After cell lysis, GFP-Plk1 was immunoprecipitated and co-purified Map-Luc was measured by luminescence following addition of the luciferase substrate, coelenterazine.
Half a million stably transfected Map205-RLucII/GFP10-Plk1 cells in Tyrode solution were seeded per well in a 96-well plate and allowed to settle for 30 min at 37 °C. […] Plates were then centrifuged at 4 °C at 3000 rpm for 5 minutes to pellet cells. Cells were then lysed with the IP buffer (20 mM Tris pH 7.5, 150 mM NaCl, 2 mM EGTA, 0.5% NP-40, 1 mM DTT, PMSF, aprotinin and leupeptin) and incubated on ice for 20 minutes. Plates were centrifuged again at 4 °C at 3400 rpm for 10 minutes, and the soluble fraction was transferred into a new 96-well plate. Note that 10 μl of this fraction was transferred in white 96-well plates from which the luminescence was read as a measure of the input amount of cell lysate for the co-IP. GFP-Plk1 was immunoprecipitated by adding 0.35 μl of anti-GFP antibody (Invitrogen). Plates were sealed and incubated on a rotator at 4 °C for 30 minutes. Then, 4 μl of pre-washed protein A magnetic beads (Invitrogen) were added to each well. Plates were sealed and incubated at 4 °C for 1h30. The extracts + beads were then transferred in a 96-well PCR plates and beads were washed 3 times with the IP buffer using a magnetic 96-well rack. The fourth wash was done in Tyrode solution, then beads were re-suspended with it and transferred in a white 96-well plate. […] Tyrode was also added to the plates containing the input fraction, then Coelenterazine h was added to the wells, and enhanced luminescence was read as described above.

GST-PBD367-603 of Plk1 = GST-PBD367-603 of Plk1 (Homo sapiens, UniProt P53350); experiment: fluorescence polarization assay PBD-phosphopeptide; details: 50 μM
Method: In this assay, an optimal phosphopeptide for PBD binding is coupled with a FITC fluorophore and its binding to purified recombinant PBD of Plk1 is monitored by the change in polarization of incident light.
The FP buffer was composed of 10 mM Tris pH 8.0, 50 mM NaCl, 1 mM EDTA, 20% glycerol and 0.1% NP-40. The peptide (final concentration 10 nM) was always added to the wells of non-binding, black, 384-well plates, 1 hour after the addition of the protein with the buffer (+/− treatment, 10% DMSO). […] EC65s were used to perform the competitive assays with the non-labeled peptides and with the inhibitors. FP Inhibition was calculated with the formula: 100 − [((mPsample − mPfree peptide)\(mPDMSO − mPfree peptide)) × 100]. […] (Map peptide), and corresponding non-labeled peptides are identical but without FITC in N-terminal. […] Inhibition curves were fitted with GraphPad (Prism software).

HEK293T cells = experiment: mitotic index assay (phospho-Histone H3) in HEK293T cells
Method: For the mitotic index assay, 4000 HeLa cells or 5000 HEK293T cells per well were seeded in a 96-well plate. The day after, cells were incubated for 7 hours with different compounds, and then fixed by adding formaldehyde (4% final concentration) directly to each well. Plates were incubated 20 minutes at 37 °C, and then wells were rinsed three times with TBS-Tween 0.1%. A 1 hour block with PHEM buffer (60 mM Pipes, 25 mM HEPES, 10 mM EGTA, 4 mM MgSO4, pH 6.9) containing 2% BSA and 0.1% triton was performed, before addition of the primary antibody to the wells. The anti-phospho-Histone H3 (Ser10) antibody (EMD Millipore) was diluted 1:300 in PHEM buffer containing 2% BSA and added to the wells for 2 hours at room temperature in the dark. […] Plates were incubated for 1h 30 at room temperature in the dark, and then wells were washed 3 times with TBS-Tween 0.1%. A solution of Mowiol containing DAPI was finally added to the wells. Plates were kept at 4 °C in the dark until imaging using the 20x objective on an Operetta system (Perkin Elmer inc.). The mitotic index, corresponding to the percentage of pHH3 positive cells relative to the total number of DAPI-stained cells detected was calculated by the Operetta using the Harmony 3.5 software. Experiments were done in triplicates.

Plk1-Map interaction [4] = molecular target: T2, Plk1-Map interaction; experiment: BRET Plk1-Map, stable HEK293T Plk1-Luc/GFP-Map cell line; type: cell-based; set-up: cDNAs for the human full length Plk1; expressed in transfected cells; details: for Primary screen Plk1-Map (stable) % Inihibition / Primary screen Plk1-Map (stable) % Quench RLuc: 10-25 μM, 2 h; for Confirmation Plk1-Map (stable) % Inihibition / Confirmation Plk1-Map (stable) % Quench RLuc: confirmation screen
Source text: To develop a cell-based assay for the identification of Plk1 interaction inhibitors, we used Bioluminescence Resonance Energy Transfer (BRET)[42][43]. The assay monitors the interaction in HEK293T cells between Plk1 and Map205, a protein that we previously identified as an interactor of Drosophila Polo (Plk1 ortholog) on its PBD[44]. Although no ortholog of Drosophila Map205 has been found in vertebrates, this protein robustly interacts with vertebrate Plk1. […] Importantly, crystallography with zebrafish Plk1 has recently shown that Map205 nevertheless docks in the canonical phosphopeptide binding site of the PBD, with the natural phospho-mimetic Glu314 residue (Fig. 1A)[45]. In our assay, human Plk1 and a fragment of Drosophila Map205 (Map205_254-416 = Map) are respectively fused to Renilla luciferase II (Luc) and GFP10 (GFP), giving rise to energy transfer when the proteins are in close proximity (Fig. 1B). […] All combinations of Plk1 and Map tagged with Luc and GFP were tested (Supplementary Fig. S1). The Plk1-Luc/GFP-Map combination was selected because it yielded the highest BRET dynamic window. We then generated clonal stable cell lines co-expressing these two fusion proteins. These cell lines behaved very similarly to each other in BRET, and we selected one line that gave a high and reproducible BRET signal, with a Z′ score of 0.78, indicative of a robust assay for the purpose of a chemical screen (Supplementary Fig. S1).
as §1
For BRET on transiently transfected cells, 48 hours after the transfection, medium was removed, cells were washed twice with PBS, and then Tyrode solution (140 mM NaCl, 2.7 mM KCl, 12 mM NaHCO3, 5.6 mM D-glucose, 0.49 mM MgCl2, 0.37 mM NaH2PO4, 25 mM HEPES, pH 7.4, where 1 mM CaCl2 was freshly added) was added to the cells. Total fluorescence was first measured using a FlexStation II microplate reader (Molecular Devices), where the GFP10 was excited at 400 nm and read at 510 nm. Then, cells were treated for 5 minutes with 2.5 μM coelenterazine 400a (Gold Technology) before reading BRET2 using the Mithras LB940 microplate reader (Berthold Technologies). BRET2 signal corresponds to the light emitted by the GFP10 acceptor constructs (515 nm ± 20 nm) divided by the light emitted by the RlucII donor constructs (400 nm ± 70 nm). Net BRET2 was calculated by subtracting the background BRET ratio of the RLucII plasmid alone from the BRET ratio obtained by the two BRET partners. The Net BRET2 was plotted according to the GFP10/RLucII ratio, which was obtained by dividing the total fluorescence by the RLucII emission.
For the high throughput chemical screen, cells were amplified and frozen as multiple 1 ml aliquots containing 25 millions of stable HEK293T Plk1-Luc/GFP-Map cells to ensure that cells at the same passage number are used during the screen. […] Five days later, cells were counted and re-suspended in Tyrode solution. […]

Plk1-Map interaction [5] = molecular target: T2, Plk1-Map interaction; experiment: BRET Plk1-Map, transient Luc-Map/Plk1-GFP in HEK293T; type: cell-based; set-up: cDNAs for the human full length Plk1; expressed in transfected cells; details: confirmation screen
Method: as §2

[6] = reaction with amino-protected amino acids (LC-MS); details: room temperature
Method: Vinyl sulfones are reactive species that can alkylate substrates as a result of a nucleophilic attack on the distal carbon of the vinyl group. To evaluate the potential of Cpd 161 (vinyl sulfone) to react with proteins, we tested its reaction with nucleophilic amino acid side chains groups. […] To test whether Cpd 161 could react covalently with the PBD, we incubated them together and examined the molecular mass of the protein by SDS-PAGE (Fig. 7). […] Consistent with this idea, the extent of the shift depended on the concentration of Cpd 161 used (Fig. 7B) and also on the incubation time (Fig. 7C).
To a stirred solution of electrophile (0.02 mmol) and amino acid (1- 1.5eq) in DMF (0.3 ml) were added a few drops of a diluted aqueous solution of sodium bicarbonate. The reaction was monitored using an Agilent 6120 Quadrupole LC/MS system (Agilent Technologies). In all cases, the molecular ion of the product was observed.

mitosis = details: cited from earlier work
[7] = molecular target: T3, Human Plk1 full length protein (human, UniProt P53350 1-603); experiment: fluorescence polarisation; FITC-Map peptide with the PBD or full-length Plk1 (Supplementary Fig. S3); compounds tested up to 100 uM; details: both partners purified
T3 construct: Polo-like kinase 1 (Plk1), human, full length protein; also called full-length Plk1; whole Plk1; source: bought: Abcam

human GST-PBD_(367-603) = molecular target: T4, human GST-PBD_(367-603) (human, UniProt P53350 367-603); experiment: fluorescence polarisation; competition: FITC-phosphopeptide 10 nM and GST-PBD 367-603 at 38 nM (EC65), unlabeled phosphopeptide at increasing concentrations; FP buffer; details: both partners purified
T4 construct: also called Polo-Box Domain of Plk1; source: bought: Sigma-Aldrich
T4 sequence (P53350 367-603): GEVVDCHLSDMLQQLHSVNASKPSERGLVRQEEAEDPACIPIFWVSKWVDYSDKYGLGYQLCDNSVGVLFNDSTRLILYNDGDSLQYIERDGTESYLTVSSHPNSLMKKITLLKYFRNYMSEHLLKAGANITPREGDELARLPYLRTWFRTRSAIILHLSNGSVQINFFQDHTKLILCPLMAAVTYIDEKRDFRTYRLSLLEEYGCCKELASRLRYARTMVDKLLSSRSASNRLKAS

T1 sequence (P04049 whole entry): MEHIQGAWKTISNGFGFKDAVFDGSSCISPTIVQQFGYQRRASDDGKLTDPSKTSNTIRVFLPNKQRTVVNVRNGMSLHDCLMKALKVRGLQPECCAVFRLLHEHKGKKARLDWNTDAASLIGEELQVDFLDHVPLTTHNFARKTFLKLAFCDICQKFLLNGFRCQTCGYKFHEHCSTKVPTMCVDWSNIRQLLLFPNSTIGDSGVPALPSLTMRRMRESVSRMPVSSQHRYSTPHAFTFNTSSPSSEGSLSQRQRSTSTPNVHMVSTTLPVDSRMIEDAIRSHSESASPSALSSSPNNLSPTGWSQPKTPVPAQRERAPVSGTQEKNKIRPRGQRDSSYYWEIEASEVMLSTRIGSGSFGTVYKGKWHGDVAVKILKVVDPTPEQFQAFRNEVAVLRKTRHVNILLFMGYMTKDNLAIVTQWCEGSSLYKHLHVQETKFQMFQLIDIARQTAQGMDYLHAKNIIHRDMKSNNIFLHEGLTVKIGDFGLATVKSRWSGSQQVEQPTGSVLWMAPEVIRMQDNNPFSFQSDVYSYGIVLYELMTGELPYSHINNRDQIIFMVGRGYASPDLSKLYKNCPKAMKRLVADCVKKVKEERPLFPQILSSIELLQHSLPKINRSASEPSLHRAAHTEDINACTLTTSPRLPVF
T1 sequence (P15056 whole entry): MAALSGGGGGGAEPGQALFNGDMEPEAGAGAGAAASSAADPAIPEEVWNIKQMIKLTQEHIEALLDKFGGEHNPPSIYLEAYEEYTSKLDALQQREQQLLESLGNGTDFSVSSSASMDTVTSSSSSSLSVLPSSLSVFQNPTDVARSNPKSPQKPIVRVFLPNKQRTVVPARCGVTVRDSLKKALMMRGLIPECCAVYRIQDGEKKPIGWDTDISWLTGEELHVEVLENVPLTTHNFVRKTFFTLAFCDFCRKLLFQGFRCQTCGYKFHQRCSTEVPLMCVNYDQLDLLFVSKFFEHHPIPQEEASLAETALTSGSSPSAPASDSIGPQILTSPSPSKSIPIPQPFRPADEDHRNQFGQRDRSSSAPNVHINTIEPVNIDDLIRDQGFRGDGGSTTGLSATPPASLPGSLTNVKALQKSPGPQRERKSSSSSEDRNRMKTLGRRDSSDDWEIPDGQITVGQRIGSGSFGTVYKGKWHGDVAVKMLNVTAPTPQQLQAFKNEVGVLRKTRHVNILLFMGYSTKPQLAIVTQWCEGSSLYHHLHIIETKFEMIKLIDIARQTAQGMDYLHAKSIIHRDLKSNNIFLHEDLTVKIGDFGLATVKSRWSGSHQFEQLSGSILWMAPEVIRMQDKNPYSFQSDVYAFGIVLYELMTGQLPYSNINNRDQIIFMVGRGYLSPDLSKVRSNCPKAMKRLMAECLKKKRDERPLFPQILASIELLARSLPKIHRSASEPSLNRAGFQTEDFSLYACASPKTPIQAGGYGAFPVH
T2 sequence (P53350 whole entry): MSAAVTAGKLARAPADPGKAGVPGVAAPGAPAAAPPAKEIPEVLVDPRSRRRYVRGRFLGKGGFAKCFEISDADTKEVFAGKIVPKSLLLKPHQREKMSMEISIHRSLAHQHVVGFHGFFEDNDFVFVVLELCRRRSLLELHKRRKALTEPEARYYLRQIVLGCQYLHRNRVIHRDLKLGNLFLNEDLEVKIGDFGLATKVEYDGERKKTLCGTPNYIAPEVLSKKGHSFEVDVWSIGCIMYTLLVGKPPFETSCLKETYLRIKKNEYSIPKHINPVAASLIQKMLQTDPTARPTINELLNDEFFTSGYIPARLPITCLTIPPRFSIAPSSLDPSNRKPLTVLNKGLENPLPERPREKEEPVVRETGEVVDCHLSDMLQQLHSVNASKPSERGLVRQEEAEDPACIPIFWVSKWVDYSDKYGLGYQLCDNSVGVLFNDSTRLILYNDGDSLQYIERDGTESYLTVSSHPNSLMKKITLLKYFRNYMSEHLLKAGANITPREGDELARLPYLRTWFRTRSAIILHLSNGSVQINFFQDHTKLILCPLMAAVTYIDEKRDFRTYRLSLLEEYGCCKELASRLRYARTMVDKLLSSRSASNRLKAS
Sequence of GST-PBD367-603 of Plk1 (P53350 367-603): as the sequence (P53350 367-603) above
T3 sequence (P53350 whole entry): as the sequence (P53350 whole entry) above

Primary screen CRAF-BRAF (transient) % Inihibition (CRAF-BRAF) [%]	Primary screen CRAF-BRAF (transient) % Quench RLuc (CRAF-BRAF) [%]	Confirmation CRAF-BRAF (transient) % Inihibition (CRAF-BRAF) [%]	Confirmation CRAF-BRAF (transient) % Quench RLuc (CRAF-BRAF) [%]	Average-Beads (mean luminescence) (Plk1-Map interaction [3]; 10-25 μM, 2 h)	Co-IP Values relative to top in plate column = 1 (Plk1-Map interaction [3]; 10-25 μM, 2 h)	effect on the Plk1-Map interaction in co-IP (Plk1-Map interaction [3]; 10-25 μM, 2 h)	Relative Luminescence Unit (Plk1-Map interaction [3])	activity in the FP assay (GST-PBD367-603 of Plk1)	Primary screen Plk1-Map (stable) % Inihibition (Plk1-Map interaction [4]) [%]	Primary screen Plk1-Map (stable) % Quench RLuc (Plk1-Map interaction [4]) [%]	Confirmation Plk1-Map (stable) % Inihibition (Plk1-Map interaction [4]) [%]	Confirmation Plk1-Map (stable) % Quench RLuc (Plk1-Map interaction [4]) [%]	Confirmation Plk1-Map (transient) % Inihibition (Plk1-Map interaction [5]) [%]	Confirmation Plk1-Map (transient) % Quench RLuc (Plk1-Map interaction [5]) [%]	binding result (human GST-PBD_(367-603))	Molecule	effect on mitotic index, purchased compounds (HeLa cells [1])	2 > pericentrin foci (percentage of cells) (HeLa cells [2]) [%]	Disorganized spindles (percentage of cells) (HeLa cells [2]) [%]	effect on mitotic index, purchased compounds (HEK293T cells; 10 μM)	also measured
18.32	72.42	7.18	67.88	281,985	0.866	no effect	0.866	little or no activity	77.38	86.93	49.85	91.91	-0.61	62.73		COc1ccc(-c2oc3ccccc3c(=O)c2OS(=O)(=O)c2cc(OC)ccc2OC)cc1 [Cpd 69]	significant increase	2 ± 2	100 ± 0	significant increase	Mitotic index (%) (HeLa cells [1]; 10-25 μM, 7 h): 30.13%; Luminescence on beads, duplicate wells (Plk1-Map interaction [3]; raw data, 10-25 μM, 2 h): 232,744 and 331,226; effect on mitotic index, purchased compounds (HEK293T cells; 1 μM): small increase
																CC1=CC(=O)C(C(C)C)=CC1=O [TQ, Thymoquinone]		33 ± 9	56 ± 8		time to completion of reaction with amino-protected cysteine [6]: approximately 10 minutes; concentrations required to disrupt mitosis and induce apoptosis (mitosis): high micromolar concentrations
-8.30	44.16	3.03	35.15	1,018,574	0.776	no effect	0.776	little or no activity	44.05	86.60	30.57	79.14	-1.93	25.69		COc1ccc(-c2oc3ccccc3c(=O)c2OS(=O)(=O)c2cc(Cl)ccc2Cl)cc1 [Cpd 122]	significant increase	65 ± 2	85 ± 5	significant increase	
																{FITC}-GIAVPDEREFDIEADMRPHEL (small peptide derived from Drosophila Map205; also called small peptide derived from Map205 coupled to FITC; source: synthetic peptide (Bio Basic inc., >95% pure)) [FITC-GIAVPDEREFDIEADMRPHEL (Map peptide)]					binding result [7]: binds
															binds	GPMQS[pT]PLNG (as m7 but without FITC in N-terminal; also called corresponding unlabeled phosphopeptide; equivalent unlabeled peptide; source: synthetic peptide (Bio Basic inc., >95% pure)) [unlabeled phosphopeptide GPMQS{T}PLNG]					
															binds	{FITC}-GPMQS[pT]PLNG (also called FITC-phosphopeptide; source: synthetic peptide (Bio Basic inc., >95% pure)) [FITC-GPMQS{T}PLNG (FITC-labeled PBD-binding phosphopeptide)]					
